In patent publication US20240317721A1, “PYRAZOLYL DERIVATIVES AS INHIBITORS OF THE KRAS MUTANT PROTEIN” (NOVARTIS AG, priority 2021, published 2024) one finds IC50 data, which are given here for 27 molecules.

The test addresses KRasG12C (M1-K169, biotinylated on the N-terminus) (Homo sapiens (Human), UniProt P01116, G12C). Briefly: Covalent competition assay: scintillation proximity assay (SPA) quantifying covalent modification of KRASG12C. It counts as binding. Particulars: competition with radiolabeled covalent probe (Compound B/Compound A), 2 hours incubation, 10 nM KRasG12C. An outline of the steps:
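Test compounds compete with a radiolabeled covalent probe for modification of N-terminally biotinylated KRasG12C(M1-K169):GDP, final 10 nM protein, 25 nM radio-ligand, 475 nM unlabelled ligand, 2 h with agitation in 20 mM Tris-HCl pH 7.5, 150 mM NaCl, 0.1 mM MgCl2, 0.01% Tween-20.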
Background: SPA uses beads or plates that emit light when radiolabelled molecules are held near them.
Broadly, the IC50 is the point on the concentration scale where inhibition reaches its midpoint. Turning to `C=CC(=O)N1CC2(CCC(n3nc(N4CCN(C(C)=O)CC4)c(-c4c(Cl)ccc5[nH]ncc45)c3C)C2)C1` (single isomer, unassigned) [Example 53d, 1-(6-(3-(4-acetylpiperazin-1-yl)-4-(5-chloro-1H-indazol-4-yl)-5-methyl-1H-pyrazol-1-yl)-2-azaspiro[3.4]octan-2-yl)prop-2-en-1-one], the IC50 stood at 9.03 µM. The value for `C=CC(=O)N1CC2(CC(n3nc(N4CCN(C(C)=O)C[C@@H]4CC)c(-c4c(Cl)c(C)cc5[nH]ncc45)c3C)C2)C1` (single isomer, unassigned) [Example 94b] was 0.064 µM; that for `C=CC(=O)N1CC2(CC(n3nc(N4CCN(C5COC5)CC45CCC5)c(-c4c(Cl)c(C)cc5[nH]ncc45)c3C)C2)C1` (single isomer, unassigned) [Example 54a, 1-(6-(4-(5-Chloro-6-methyl-1H-indazol-4-yl)-5-methyl-3-(8-(oxetan-3-yl)-5,8-diazaspiro[3.5]nonan-5-yl)-1H-pyrazol-1-yl)-2-azaspiro[3.3]heptan-2-yl)prop-2-en-1-one] was 17.8 µM.

`C=CC(=O)N1CC2(CC(n3nc(N4CC[C@@H](CN5CCn6cnnc6C5)CC4(C)C)c(-c4c(Cl)c(Cl)cc5[nH]ncc45)c3C)C2)C1` (single isomer, unassigned) [Example 250a]: the IC50 came to 0.405 µM. In the case of `C=CC(=O)N1CC2(CC(n3nc(N4CC[C@@H](CN(CCO)CCOC)CC4(C)C)c(-c4c(Cl)c(Cl)cc5[nH]ncc45)c3C)C2)C1` (single isomer, unassigned) [Example 253b], the IC50 was 0.008 µM. The value for `C=CC(=O)N1CC2(CC(n3nc(N4CCN(C[C@@H]5COCCO5)CC45CCC5)c(-c4c(Cl)c(Cl)cc5[nH]ncc45)c3C)C2)C1` (single isomer, unassigned) [Example 171b] was 0.008 µM; that for `C=CC(=O)N1CC2(CC(n3nc(N4CCN(CCOC)CC45CCC5)c(-c4c(Cl)c(C)cc5[nH]ncc45)c3C)C2)C1` (single isomer, unassigned) [Example 71a, 1-(6-(4-(5-chloro-6-methyl-1H-indazol-4-yl)-3-(8-(2-methoxyethyl)-5,8-diazaspiro[3.5]nonan-5-yl)-5-methyl-1H-pyrazol-1-yl)-2-azaspiro[3.3]heptan-2-yl)prop-2-en-1-one] was 1.2 µM. The value for `C=CC(=O)N1CC2(CC(n3nc(N4CCC(n5ccnc5)CC4(C)C)c(-c4c(Cl)c(C)cc5[nH]ncc45)c3C)C2)C1` (single isomer, unassigned) [Example 44a, 1-(6-(3-(4-(1H-imidazol-1-yl)-2,2-dimethylpiperidin-1-yl)-4-(5-chloro-6-methyl-1H-indazol-4-yl)-5-methyl-1H-pyrazol-1-yl)-2-azaspiro[3.3]heptan-2-yl)prop-2-en-1-one] was 4.6 µM; that for `C=CC(=O)N1CC2(CC(n3nc(N4CCN(C5COC5)CC45CCOC5)c(-c4c(Cl)c(C)cc5[nH]ncc45)c3C)C2)C1` (single isomer, unassigned) [Example 141b, 1-(6-(4-(5-chloro-6-methyl-1H-indazol-4-yl)-5-methyl-3-(9-(oxetan-3-yl)-2-oxa-6,9-diazaspiro[4.5]decan-6-yl)-1H-pyrazol-1-yl)-2-azaspiro[3.3]heptan-2-yl)prop-2-en-1-one] was 0.104 µM.

As to `C=CC(=O)N1CC2(CC(n3nc(N4CCN(C5COC5)CC45CCC5)c(-c4c(Cl)c(Cl)cc5[nH]ncc45)c3C)C2)C1` (single isomer, unassigned) [Example 72b], the IC50 came to 0.007 µM. Take `C=CC(=O)N1CC2(CC(n3nc(N4[C@@H](C)CN(C(C)=O)C[C@@H]4C)c(-c4c(Cl)c(C)cc5[nH]ncc45)c3C)C2)C1` (single isomer, unassigned) [Example 56b]: the IC50 was 0.334 µM.

Turning to `C=CC(=O)N1CC2(CC(n3nc(N4CCN(CC(C)(C)O)C[C@@]4(C)CC)c(-c4c(Cl)c(C)cc5[nH]ncc45)c3C)C2)C1` (single isomer, unassigned) [Example 164b], the IC50 turned out to be 0.056 µM.

Turning to `C=CC(=O)N1CC2(CC(n3nc(N4CCC(N5CCOCC5)CC4(C)C)c(-c4c(Cl)c(C)cc5[nH]ncc45)c3C)C2)C1` (single isomer, unassigned) [Example 34a, 1-(6-(4-(5-chloro-6-methyl-1H-indazol-4-yl)-3-(2,2-dimethyl-4-morpholinopiperidin-1-yl)-5-methyl-1H-pyrazol-1-yl)-2-azaspiro[3.3]heptan-2-yl)prop-2-en-1-one], the IC50 is 3.8 µM.

For `C=CC(=O)N1CC2(CC(n3nc(N4CCN(C(C)C)CC45CCC5)c(-c4c(Cl)c(C)cc5[nH]ncc45)c3C)C2)C1` (single isomer, unassigned) [Example 131b, 1-(6-(4-(5-chloro-6-methyl-1H-indazol-4-yl)-3-(8-isopropyl-5,8-diazaspiro[3.5]nonan-5-yl)-5-methyl-1H-pyrazol-1-yl)-2-azaspiro[3.3]heptan-2-yl)prop-2-en-1-one], the IC50 is 0.076 µM. The value for `C=CC(=O)N1CC2(CC(n3nc(N4CC[C@@H](CN5CC6C5CCN6C5COC5)CC4(C)C)c(-c4c(Cl)c(Cl)cc5[nH]ncc45)c3C)C2)C1` (single isomer, unassigned) [Example 278a, 1-(6-(4-(5,6-dichloro-1H-indazol-4-yl)-3-((R)-2,2-dimethyl-4-(((1S*,5S*)-2-(oxetan-3-yl)-2,6-diazabicyclo[3.2.0]heptan-6-yl)methyl)piperidin-1-yl)-5-methyl-1H-pyrazol-1-yl)-2-azaspiro[3.3]heptan-2-yl)prop-2-en-1-one] was greater than 5 µM; that for `C=CC(=O)N1CC2(CC(n3nc(N4CCC(CN5CC6CC(C5)O6)CC4(C)C)c(-c4c(Cl)c(Cl)cc5[nH]ncc45)c3C)C2)C1` (single isomer, unassigned) [Example 228b, 1-(6-(3-(4-((6-oxa-3-azabicyclo[3.1.1]heptan-3-yl)methyl)-2,2-dimethylpiperidin-1-yl)-4-(5,6-dichloro-1H-indazol-4-yl)-5-methyl-1H-pyrazol-1-yl)-2-azaspiro[3.3]heptan-2-yl)prop-2-en-1-one] was 0.281 µM. `C=CC(=O)N1CC2(CC(n3nc(N4CCC(N(C)C(=O)COC)CC4(C)C)c(-c4c(Cl)c(C)cc5[nH]ncc45)c3C)C2)C1` (single isomer, unassigned) [Example 96a, N-(1-(1-(2-acryloyl-2-azaspiro[3.3]heptan-6-yl)-4-(5-chloro-6-methyl-1H-indazol-4-yl)-5-methyl-1H-pyrazol-3-yl)-2,2-dimethylpiperidin-4-yl)-2-methoxy-N-methylacetamide]: the IC50 was greater than 5 µM. Under `C=CC(=O)N1CC2(CC(n3nc(N4CCC(C(=O)N(C)C)CC4(C)C)c(-c4c(Cl)c(C)cc5[nH]ncc45)c3C)C2)C1` (stereo not drawn) [Example 98a, 1-(1-(2-acryloyl-2-azaspiro[3.3]heptan-6-yl)-4-(5-chloro-6-methyl-1H-indazol-4-yl)-5-methyl-1H-pyrazol-3-yl)-N,N,2,2-tetramethylpiperidine-4-carboxamide] stands greater than 5 µM; under `C=CC(=O)N1CC2(CC(n3nc(N4CCc5nn(C)c(=O)cc5C4)c(-c4c(Cl)c(C)cc5[nH]ncc45)c3C)C2)C1` (single isomer, unassigned) [Example 40b, 6-(1-(2-acryloyl-2-azaspiro[3.3]heptan-6-yl)-4-(5-chloro-6-methyl-1H-indazol-4-yl)-5-methyl-1H-pyrazol-3-yl)-2-methyl-5,6,7,8-tetrahydropyrido[4,3-c]pyridazin-3(2H)-one], 0.633 µM; under `C=CC(=O)N1CC2(CC(n3nc(N4CC[C@@H](CN5CC6(CCOC6)C5)CC4(C)C)c(-c4c(Cl)c(Cl)cc5[nH]ncc45)c3C)C2)C1` (single isomer, unassigned) [Example 316a], 1.2 µM.

`C=CC(=O)N1CC2(CC(n3nc(N4CC[C@@H](CN5CC(O)C(OC)C5)CC4(C)C)c(-c4c(Cl)c(Cl)cc5[nH]ncc45)c3C)C2)C1` (single isomer, unassigned) [Example 273b, 1-(6-(4-(5,6-dichloro-1H-indazol-4-yl)-3-((R)-4-(((3S*,4S*)-3-hydroxy-4-methoxypyrrolidin-1-yl)methyl)-2,2-dimethylpiperidin-1-yl)-5-methyl-1H-pyrazol-1-yl)-2-azaspiro[3.3]heptan-2-yl)prop-2-en-1-one]: the IC50 came to 0.01 µM. As to `C=CC(=O)N1CC2(CC(n3nc(N4CCN(C5CCOCC5)C[C@]4(C)C(F)F)c(-c4c(Cl)c(C)cc5[nH]ncc45)c3C)C2)C1` (single isomer, unassigned) [Example 151b], the IC50 was greater than 5 µM.

With `C=CC(=O)N1CC2(CC(n3nc(N4CC[C@@H](CN5CCN6CCOC[C@@H]6C5)CC4(C)C)c(-c4c(Cl)c(Cl)cc5[nH]ncc45)c3C)C2)C1` (single isomer, unassigned) [Example 279b], the IC50 is 0.006 µM. Consider `C=CC(=O)N1CC2(CC(n3nc(N4CCN(C[C@@H]5COCCO5)C[C@@]4(CC)C(F)F)c(-c4c(Cl)c(C)cc5[nH]ncc45)c3C)C2)C1` (single isomer, unassigned) [Example 107b], for which the IC50 worked out at 0.01 µM. For the molecule `C=CC(=O)N1CC2(CC(n3nc(N4CCN(C5COC5)C[C@]4(C)CCOC)c(-c4c(Cl)c(C)cc5[nH]ncc45)c3C)C2)C1` (single isomer, unassigned) [Example 86a], the IC50 is 2.3 µM. The value for `C=CC(=O)N1CC2(CC(n3nc(N4CCC5C(CC(=O)N5C)C4)c(-c4c(Cl)c(C)cc5[nH]ncc45)c3C)C2)C1` (single isomer, unassigned) [Example 38b, 5-(1-(2-acryloyl-2-azaspiro[3.3]heptan-6-yl)-4-(5-chloro-6-methyl-1H-indazol-4-yl)-5-methyl-1H-pyrazol-3-yl)-1-methyloctahydro-2H-pyrrolo[3,2-c]pyridin-2-one] was 0.089 µM; that for `C=CC(=O)N1C[C@]2(C[C@H](n3nc(N4CCN(C[C@@H]5COCCO5)C[C@]4(C)CC)c(-c4c(Cl)c(C)cc5[nH]ncc45)c3C)C2)[C@H]1C` (single isomer, unassigned) [Example 200b] was 0.023 µM.
